Legend:
Ha-Chitinase = assay: fluorometric chitinase assay; assay type: biochemical, Helicoverpa armigera; settings: 50 mM sodium phosphate pH 7.0, 30 °C, 20 min; without Bt-CBP21; footnote gives substrate as 50 µM
Text: fluorometric chitinase assay on Ha-Chitinase

Bt-Chitinase = test system: T1, Bt-Chitinase; assay: fluorometric chitinase assay; assay type: biochemical, Bacillus thuringiensis serovar kurstaki; settings: 50 mM sodium phosphate pH 7.0, 30 °C, 20 min; without Bt-CBP21; footnote gives substrate as 50 µM
T1 construct: EC 3.2.1.14
Text: fluorometric chitinase assay on Bt-Chitinase

In the case of `CC(=O)N[C@H]1[C@H](Oc2ccc3c(C)cc(=O)oc3c2)O[C@H](CO)[C@@H](O[C@@H]2O[C@H](CO)[C@@H](O)[C@H](O)[C@H]2NC(C)=O)[C@@H]1O` [4-MU-(GlcNAc)2], the Km (Ha-Chitinase) is reported as 1.4 µM and the Km (Bt-Chitinase) is reported as 30 µM.
